Experimental data reported in patent publication US9920030B2 (priority 2006, dated 2018).
Where two headings read alike, the source gives them in different places.

Columns and labels:
Type in all cases: in vivo
[1] = test system: Plasmopara vilicola (the causal agent of grape downy mildew); test: Test A: grape downy mildew, test suspension sprayed on grape seedlings after inoculation, visual disease rating
Summary of the method: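 Compounds dissolved in acetone (3% of final volume), suspended in 50/50 acetone/water with 250 ppm Trem 014; 200 ppm to run-off equals 500 g/ha. Seedlings inoculated, held saturated at 20 °C 24 h, then sprayed; 5 days at 20 °C, 24 h saturated, then visual rating, 0–100% control versus untreated.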

[2] = test system: Phytophthora infestans (the causal agent of tomato late blight); test: whole plant or invertebrate
[3] = test system: Phytophthora infestans (the causal agent of tomato late blight); test: whole plant or invertebrate; remark: listed apart in the source
[4] = compounds without asterisk (application rate not given), 100 = 100% disease control, 0 = no control relative to the controls

Cc1cc(C(F)(F)F)nn1CC(=O)N1CCC(c2nc(C3=NO[C@@H](c4c(F)cccc4F)C3)cs2)CC1 [Compound 214, 1-[4-[4-[(5R)-5-(2,6-difluorophenyl)-4,5-dihydro-3-isoxazolyl]-2-thiazolyl]-1-piperidinyl]-2-[5-methyl-3-(trifluoromethyl)-1H-pyrazol-1-yl]ethanone]
pest or weed control at 40 ppm ([1]; Plasmopara, 144 h, * tested at 40 ppm, read-out: Percent Disease Control, Test A): 100%
pest or weed control at 40 ppm ([2]; Phytophthora infestans, 144 h, read-out: Percent Disease Control, Test B): 100%
pest or weed control at 40 ppm ([3]; Phytophthora infestans, 96 h, read-out: Percent Disease Control, Test C): 99%

Cc1ccc(C)c(C2CC(c3csc(C4CCN(C(=O)Cn5nc(C(F)(F)F)cc5C)CC4)n3)=NO2)c1 (stereo not drawn) [Compound 133]
Percent Disease Control, Test A ([1]; * tested at 40 ppm): 100%
Percent Disease Control, Test B ([2]; * tested at 40 ppm): 100%
Percent Disease Control, Test C ([3]; * tested at 40 ppm): 99%

Cc1cc(C(F)(F)F)nn1CC(=O)N1CCC(c2nc(C3=NOC(c4ccc(O)c(O)c4)C3)cs2)CC1 (stereo not drawn) [Compound 125]
Percent Disease Control, Test A [1, 4]: 31%
Percent Disease Control, Test B [2, 4]: 53%
Percent Disease Control, Test C [3, 4]: 0%

Cc1cc(C(F)(F)F)nn1CC(=O)N1CCC(c2nc(C3=NOC4(CCCCC4c4ccccc4)C3)cs2)CC1 (mixture of isomers) [Compound 170]
Percent Disease Control, Test A ([1]; * tested at 40 ppm): 99%
Percent Disease Control, Test B ([2]; * tested at 40 ppm): 100%
Percent Disease Control, Test C ([3]; * tested at 40 ppm): 93%

CSc1ccc(-c2csc(C3CCN(C(=O)Cn4nc(C(F)(F)F)cc4C)CC3)n2)cc1 [Compound 272]
Percent Disease Control, Test A [1, 4]: 100%
Percent Disease Control, Test B [2, 4]: 100%
Percent Disease Control, Test C [3, 4]: 100%

Cc1cc(C(F)(F)F)nn1CC(=O)N1CCC(c2nc(C3=NOC(c4nc5ccccc5n4C)C3)cs2)CC1 (stereo not drawn) [Compound 219]
Percent Disease Control, Test A [1, 4]: 100%
Percent Disease Control, Test B [2, 4]: 100%
Percent Disease Control, Test C [3, 4]: 99%

Cc1cc(C(F)(F)F)nn1CC(=O)N1CCC(c2nc(-c3cc(-c4ccc(Cl)cc4Cl)no3)cs2)CC1 [Compound 86]
Percent Disease Control, Test A [1, 4]: 83%
Percent Disease Control, Test B [2, 4]: 79%
Percent Disease Control, Test C [3, 4]: 14%

Cc1ccc(-n2cc(-c3csc(C4CCN(C(=O)Cn5nc(C(F)(F)F)cc5C)CC4)n3)nn2)cc1 [Compound 77]
Percent Disease Control, Test A [1, 4]: 87%
Percent Disease Control, Test B [2, 4]: 100%
Percent Disease Control, Test C [3, 4]: 99%

Cc1cc(C(F)(F)F)nn1CC(=O)N1CCC(c2nc(C3=NOC(CS(C)(=O)=O)(c4ccccc4)C3)cs2)CC1 (stereo not drawn) [Compound 143]
Percent Disease Control, Test A ([1]; * tested at 40 ppm): 99%
Percent Disease Control, Test B ([2]; * tested at 40 ppm): 100%
Percent Disease Control, Test C ([3]; * tested at 40 ppm): 99%

Cc1cc(C(F)(F)F)nn1CC(=O)N1CCC(c2nc(C3=NCCC(c4ccccc4)O3)cs2)CC1 (stereo not drawn) [Compound 48]
Percent Disease Control, Test A [1, 4]: 0%
Percent Disease Control, Test B [2, 4]: 85%
Percent Disease Control, Test C [3, 4]: 0%

Cc1cc(C(F)(F)F)nn1CC(=O)N1CCC(c2nc(C3=N[C@@H](c4ccccc4)[C@@H](c4ccccc4)N3)cs2)CC1 [Compound 119]
Percent Disease Control, Test A [1, 4]: 0%
Percent Disease Control, Test B [2, 4]: 82%
Percent Disease Control, Test C [3, 4]: 0%

Cc1cc(C(F)(F)F)nn1CC(=O)N1CCC(c2nc(C3=NOC4(CCCCCC4)C3)cs2)CC1 [Compound 174]
Percent Disease Control, Test A ([1]; * tested at 40 ppm): 100%
Percent Disease Control, Test B ([2]; * tested at 40 ppm): 100%
Percent Disease Control, Test C ([3]; * tested at 40 ppm): 99%

Cc1cc(C(F)(F)F)nn1CC(=O)N1CCC(c2nc(C3=NOC4(CCNCC4)C3)cs2)CC1 [Compound 195]
Percent Disease Control, Test A [1, 4]: 48%
Percent Disease Control, Test B [2, 4]: 92%
Percent Disease Control, Test C [3, 4]: 80%

Cc1cc(C(F)(F)F)nn1CC(=O)N1CCC(c2nc(C3=NOC(N4C(=O)N(C)C(=O)C(C)(C)C4=O)C3)cs2)CC1 (stereo not drawn) [Compound 279]
Percent Disease Control, Test A ([1]; * tested at 40 ppm): 100%
Percent Disease Control, Test B ([2]; * tested at 40 ppm): 100%
Percent Disease Control, Test C ([3]; * tested at 40 ppm): 99%

Cc1cc(C(F)(F)F)nn1CC(=O)N1CCC(c2nc(N3CC(c4ccccc4)OC3=O)cs2)CC1 (stereo not drawn) [Compound 242]
Percent Disease Control, Test A ([1]; * tested at 40 ppm): 99%
Percent Disease Control, Test B ([2]; * tested at 40 ppm): 100%
Percent Disease Control, Test C ([3]; * tested at 40 ppm): 85%

Cc1cc(C(F)(F)F)nn1CC(=O)N1CCC(c2nc(-c3cc(-c4ccccc4C(F)(F)F)on3)cs2)CC1 [Compound 60]
Percent Disease Control, Test A [1, 4]: 100%
Percent Disease Control, Test B [2, 4]: 95%
Percent Disease Control, Test C [3, 4]: 94%

Cc1cc(C(F)(F)F)nn1CC(=O)N1CCC(c2nc(C3=NC4CCCCC4N3)cs2)CC1 (stereo not drawn) [Compound 99]
Percent Disease Control, Test A [1, 4]: 31%
Percent Disease Control, Test B [2, 4]: 33%
Percent Disease Control, Test C [3, 4]: 0%

CC(=O)N1C(c2ccccc2)COC1c1csc(C2CCN(C(=O)Cn3nc(C(F)(F)F)cc3C)CC2)n1 (stereo not drawn) [Compound 14]
Percent Disease Control, Test A [1, 4]: 25%
Percent Disease Control, Test B [2, 4]: 99%
Percent Disease Control, Test C [3, 4]: 99%

Cc1cc(C(F)(F)F)nn1CC(=O)N1CCC(c2nc(C3=NO[C@@H](c4ccccc4F)C3)cs2)CC1 [Compound 79]
Percent Disease Control, Test A [1, 4]: 100%
Percent Disease Control, Test B [2, 4]: 100%
Percent Disease Control, Test C [3, 4]: 66%

Cc1cc(C(F)(F)F)nn1CC(=O)N1CCC(c2nc(-c3ccc(I)cc3)cs2)CC1 [Compound 250]
Percent Disease Control, Test A ([1]; * tested at 40 ppm): 86%
Percent Disease Control, Test B ([2]; * tested at 40 ppm): 58%
Percent Disease Control, Test C ([3]; * tested at 40 ppm): 0%

Cc1cc(C(F)(F)F)nn1CC(=O)N1CCC(c2nc(C3=NOC(N4C(=O)CCC4=O)C3)cs2)CC1 (stereo not drawn) [Compound 215]
Percent Disease Control, Test A ([1]; * tested at 40 ppm): 99%
Percent Disease Control, Test B ([2]; * tested at 40 ppm): 100%
Percent Disease Control, Test C ([3]; * tested at 40 ppm): 99%

Cc1cc(C(F)(F)F)nn1CC(=O)N1CCC(c2nc(C3=NOC4(C)C(=O)c5ccccc5C(O)=C34)cs2)CC1 (stereo not drawn) [Compound 218]
Percent Disease Control, Test A ([1]; * tested at 40 ppm): 73%
Percent Disease Control, Test B ([2]; * tested at 40 ppm): 63%
Percent Disease Control, Test C ([3]; * tested at 40 ppm): 47%

Cc1cc(C(F)(F)F)nn1CC(=O)N1CCC(c2nc(-c3ccc(F)cc3)cs2)CC1 [Compound 245]
Percent Disease Control, Test A ([1]; * tested at 40 ppm): 99%
Percent Disease Control, Test B ([2]; * tested at 40 ppm): 74%
Percent Disease Control, Test C ([3]; * tested at 40 ppm): 0%

Cc1cc(C(F)(F)F)nn1CC(=O)N1CCC(c2nc(C3=NOC(c4ccccc4)(c4ccccc4)C3)cs2)CC1 [Compound 139]
Percent Disease Control, Test A ([1]; * tested at 40 ppm): 87%
Percent Disease Control, Test B ([2]; * tested at 40 ppm): 98%
Percent Disease Control, Test C ([3]; * tested at 40 ppm): 87%

Cc1cc(C(F)(F)F)nn1CC(=O)N1CCC(c2nc(C3=NOC(N4C(=O)CCCC4=O)C3)cs2)CC1 (stereo not drawn) [Compound 243]
Percent Disease Control, Test A ([1]; ** tested at l0 ppm): 99%
Percent Disease Control, Test B ([2]; ** tested at l0 ppm): 100%
Percent Disease Control, Test C ([3]; ** tested at l0 ppm): 100%

Cc1cc(C(F)(F)F)nn1CC(=O)N1CCC(c2nc(-c3ccon3)cs2)CC1 [Compound 203]
Percent Disease Control, Test A ([1]; * tested at 40 ppm): 99%
Percent Disease Control, Test B ([2]; * tested at 40 ppm): 100%
Percent Disease Control, Test C ([3]; * tested at 40 ppm): 92%
